{"source": "paper PMC6742641", "about": "“Design, synthesis and biological evaluation of a series of CNS penetrant HDAC inhibitors structurally derived from amyloid-β probes” (Scientific Reports, 2019)", "test_in_all_cases": "HDAC activity assay (fluorimetric, BPS Biosciences)", "format_in_all_cases": "biochemical", "key": {"HDAC3": {"target": "T1, HDAC3 (Homo sapiens, UniProt O15379)", "T1 construct": "purchased BPS Biosciences", "T1 sequence (O15379 whole entry)": "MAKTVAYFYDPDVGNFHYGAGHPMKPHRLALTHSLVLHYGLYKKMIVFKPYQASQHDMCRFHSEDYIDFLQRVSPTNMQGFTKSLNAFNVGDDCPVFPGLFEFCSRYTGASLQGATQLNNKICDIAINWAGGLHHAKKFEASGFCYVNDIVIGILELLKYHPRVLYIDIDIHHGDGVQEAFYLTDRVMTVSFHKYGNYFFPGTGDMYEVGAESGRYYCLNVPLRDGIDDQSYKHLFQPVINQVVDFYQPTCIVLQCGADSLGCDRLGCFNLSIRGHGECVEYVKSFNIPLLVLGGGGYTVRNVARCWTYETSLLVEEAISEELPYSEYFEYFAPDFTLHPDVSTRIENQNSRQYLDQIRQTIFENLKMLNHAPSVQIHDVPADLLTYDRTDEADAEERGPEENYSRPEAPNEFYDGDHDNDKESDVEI", "T1 sequence (Q9Y618 395-489 partner limits assumed)": "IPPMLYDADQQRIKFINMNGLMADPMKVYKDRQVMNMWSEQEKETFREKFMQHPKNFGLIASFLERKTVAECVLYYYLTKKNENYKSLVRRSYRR", "details": "class I; mean ± SD (n = 2)", "procedure": "(§1) HDAC1, 3, 6 and 7 activity assays were performed according to the manufacturer’s protocol (BPS Biosciences). […] The HDAC assay developer was added to the mixture and incubated the plate at rt for 15 min. The fluorescence intensity was measured using a Tecan Infinite F200 Pro plate reader."}, "HDAC6": {"target": "T2, HDAC6 (Homo sapiens, UniProt Q9UBN7)", "T2 construct": "purchased BPS Biosciences", "T2 sequence (Q9UBN7 1-1215)": "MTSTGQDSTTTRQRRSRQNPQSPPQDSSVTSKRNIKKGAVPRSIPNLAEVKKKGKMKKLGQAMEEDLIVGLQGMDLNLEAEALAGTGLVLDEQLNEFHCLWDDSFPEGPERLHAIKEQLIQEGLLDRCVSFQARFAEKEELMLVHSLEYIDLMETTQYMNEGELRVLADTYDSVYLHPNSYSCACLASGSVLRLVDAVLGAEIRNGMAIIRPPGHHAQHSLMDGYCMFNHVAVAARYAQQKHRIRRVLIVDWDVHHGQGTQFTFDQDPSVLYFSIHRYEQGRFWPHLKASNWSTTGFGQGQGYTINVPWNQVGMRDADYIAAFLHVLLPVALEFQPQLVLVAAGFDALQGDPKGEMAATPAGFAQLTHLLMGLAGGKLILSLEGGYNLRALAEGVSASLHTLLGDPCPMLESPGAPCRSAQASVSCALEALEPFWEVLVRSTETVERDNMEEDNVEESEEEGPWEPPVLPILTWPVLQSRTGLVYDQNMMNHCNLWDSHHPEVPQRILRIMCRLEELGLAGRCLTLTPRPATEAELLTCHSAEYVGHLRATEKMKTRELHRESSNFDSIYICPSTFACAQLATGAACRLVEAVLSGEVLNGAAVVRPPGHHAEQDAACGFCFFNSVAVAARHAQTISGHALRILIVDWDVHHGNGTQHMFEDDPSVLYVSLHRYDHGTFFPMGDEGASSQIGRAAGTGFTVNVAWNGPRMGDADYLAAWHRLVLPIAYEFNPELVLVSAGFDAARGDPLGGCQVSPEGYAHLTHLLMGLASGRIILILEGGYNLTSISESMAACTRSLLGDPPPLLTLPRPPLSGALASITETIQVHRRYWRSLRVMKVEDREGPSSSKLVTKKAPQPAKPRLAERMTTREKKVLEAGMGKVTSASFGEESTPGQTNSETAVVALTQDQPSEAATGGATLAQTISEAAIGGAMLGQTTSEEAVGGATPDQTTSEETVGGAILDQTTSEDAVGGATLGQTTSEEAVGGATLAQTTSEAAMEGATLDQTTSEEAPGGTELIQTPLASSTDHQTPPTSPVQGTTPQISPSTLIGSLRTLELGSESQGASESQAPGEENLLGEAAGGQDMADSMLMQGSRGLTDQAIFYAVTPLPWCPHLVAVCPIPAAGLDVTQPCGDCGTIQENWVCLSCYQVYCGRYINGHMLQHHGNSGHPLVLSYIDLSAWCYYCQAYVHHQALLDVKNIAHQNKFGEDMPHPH", "details": "class IIb in Table 4; mean ± SD (n = 2)", "procedure": "as §1"}, "HDAC7": {"target": "T3, HDAC7 (Homo sapiens, UniProt Q8WUI4)", "T3 construct": "purchased BPS Biosciences", "T3 sequence (Q8WUI4 1-952)": "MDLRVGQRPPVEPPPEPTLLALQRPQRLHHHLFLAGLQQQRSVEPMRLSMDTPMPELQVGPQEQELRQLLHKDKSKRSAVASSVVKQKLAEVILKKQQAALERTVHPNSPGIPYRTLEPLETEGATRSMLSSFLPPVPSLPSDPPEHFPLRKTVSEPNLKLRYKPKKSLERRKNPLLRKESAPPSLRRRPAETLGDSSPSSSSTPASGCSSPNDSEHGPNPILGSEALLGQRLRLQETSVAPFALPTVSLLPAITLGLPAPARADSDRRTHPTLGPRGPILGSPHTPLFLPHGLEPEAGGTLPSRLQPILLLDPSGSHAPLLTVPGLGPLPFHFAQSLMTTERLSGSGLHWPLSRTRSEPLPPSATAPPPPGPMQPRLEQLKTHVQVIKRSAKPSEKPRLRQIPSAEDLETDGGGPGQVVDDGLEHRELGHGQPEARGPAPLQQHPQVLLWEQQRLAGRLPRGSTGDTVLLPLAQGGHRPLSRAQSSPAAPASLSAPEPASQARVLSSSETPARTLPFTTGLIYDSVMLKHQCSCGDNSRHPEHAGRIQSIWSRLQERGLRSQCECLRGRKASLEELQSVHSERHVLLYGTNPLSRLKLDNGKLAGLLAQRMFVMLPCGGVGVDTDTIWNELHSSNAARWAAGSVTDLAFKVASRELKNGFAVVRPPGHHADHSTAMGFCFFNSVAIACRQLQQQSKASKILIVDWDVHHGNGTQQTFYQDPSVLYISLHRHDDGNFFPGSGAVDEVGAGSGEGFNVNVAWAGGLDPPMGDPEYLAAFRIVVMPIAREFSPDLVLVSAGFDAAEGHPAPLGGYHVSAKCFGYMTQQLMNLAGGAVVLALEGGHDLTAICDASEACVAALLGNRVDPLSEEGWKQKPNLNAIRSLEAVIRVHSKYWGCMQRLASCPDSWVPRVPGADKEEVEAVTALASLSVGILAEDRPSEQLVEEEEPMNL", "details": "class IIa in Table 4; mean ± SD (n = 2)", "procedure": "as §1"}}}
{"smiles": "O=C(NO)c1ccc(-c2nc3ccccc3s2)cc1", "note": "[Compound 9b]", "values": [{"measurement": "IC50", "setting": "HDAC3", "result": "142 ± 45.7", "unit": "nM"}, {"measurement": "IC50", "setting": "HDAC6", "result": "95.9 ± 0.78", "unit": "nM"}, {"measurement": "IC50", "setting": "HDAC7", "result": 3040, "unit": "nM"}]}
